Values of other authors as cited in article PMC8583936, “Machine Learning Assisted Approach for Finding Novel High Activity Agonists of Human Ectopic Olfactory Receptors” (International Journal of Molecular Sciences, 2021).
Like-named read-outs stand apart in the source and are kept apart here.

Columns and labels:
OR1A1 = target: T1, OR1A1 (Homo sapiens, UniProt Q9P1Q5); conditions: cited from earlier work
T1 sequence (Q9P1Q5 1-309): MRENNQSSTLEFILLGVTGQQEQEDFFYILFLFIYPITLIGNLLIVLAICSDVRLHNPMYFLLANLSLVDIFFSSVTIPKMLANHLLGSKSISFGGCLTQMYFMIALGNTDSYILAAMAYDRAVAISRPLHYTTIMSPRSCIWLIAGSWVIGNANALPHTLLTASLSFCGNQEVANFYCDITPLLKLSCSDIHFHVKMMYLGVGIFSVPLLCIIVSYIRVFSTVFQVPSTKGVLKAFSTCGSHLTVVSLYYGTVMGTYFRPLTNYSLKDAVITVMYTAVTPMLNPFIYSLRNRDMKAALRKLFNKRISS

OR2W1 = target: T2, OR2W1 (Homo sapiens, UniProt Q9Y3N9); conditions: cited from earlier work
T2 sequence (Q9Y3N9 1-320): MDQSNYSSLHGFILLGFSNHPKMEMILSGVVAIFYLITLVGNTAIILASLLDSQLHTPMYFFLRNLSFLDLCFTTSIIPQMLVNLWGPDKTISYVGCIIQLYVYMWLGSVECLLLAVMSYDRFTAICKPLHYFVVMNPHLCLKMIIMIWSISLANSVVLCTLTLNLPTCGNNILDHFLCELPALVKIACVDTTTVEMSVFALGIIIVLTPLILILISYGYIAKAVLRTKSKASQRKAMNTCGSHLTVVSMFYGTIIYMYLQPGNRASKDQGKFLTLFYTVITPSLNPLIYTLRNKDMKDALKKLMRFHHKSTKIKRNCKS

[1] = Table S1, ref Supplement references [1]-[9] as printed after each odorant name
[2] = Table S2, ref Supplement references [2]-[12] as printed after each odorant name

SMILES | Class (agonist / non-agonist / conflicting info.) for OR1A1 (OR1A1; [1]) | Class (agonist / non-agonist / antagonist / conflicting info.) for OR2W1 (OR2W1; [2]) | Class (agonist / non-agonist / conflicting info.) for OR1A1 (OR1A1) | Class (agonist / non-agonist / antagonist / conflicting info.) for OR2W1 (OR2W1)
CC/C=C\CCC=O [4-heptenal, (4z)-] | Non-agonist | Non-agonist |  | 
CCOC(=O)C1CCCCC1 [Ethyl cyclohexanecarboxylate] | Agonist | Agonist |  | 
CCCC1CCCC(=O)O1 (stereo not drawn) [6-Propyloxan-2-one] | Non-agonist | Non-agonist |  | 
O=C1CCCCC1 [Cyclohexanone] | Non-agonist | Non-agonist |  | 
CCC(C)=O [2-butanone] |  |  | Non-agonist | Non-agonist
C/C=C/C(=O)C1=C(C)C=CCC1(C)C [Damascenone] | Non-agonist | Non-agonist |  | 
CC1(C)[C@H]2CC[C@]1(C)C(=O)C2 [(-)-Camphor] | Non-agonist | Non-agonist |  | 
CCCCCC(=O)C(C)C(C)=O (stereo not drawn) [3-Methyl-2,4-nonanedione] | Agonist | Non-agonist |  | 
COC(=O)C(C)C [Methyl isobutyrate] | Non-agonist | Non-agonist |  | 
CCOC(C)OCC [Acetal] | Non-agonist | Non-agonist |  | 
OCC=Cc1ccccc1 [Cinnamyl alcohol] | Non-agonist | Non-agonist |  | 
CC1CC[C@H](C(C)C)[C@@H](O)C1 (single isomer, unassigned; (+)) [(+)-Menthol] | Non-agonist | Conflicting info. |  | 
Cc1ccc(O)c(C)c1 [2,4-dimethylphenol] |  |  | Non-agonist | Non-agonist
CCCCCC[C@@H](C)O [(R)-(-)-2-octanol] | Non-agonist | Non-agonist |  | 
CCCC(C)=O [2-pentanone] | Non-agonist | Non-agonist |  | 
CC(C)=CCC/C(C)=C/C=O [Citral] |  |  | Conflicting info. | Conflicting info.
CCC(=O)C(C)=O [2,3-pentanedione] |  |  | Non-agonist | Non-agonist
CCCCCOC(=O)CCC [Amyl butyrate] | Conflicting info. | Non-agonist |  | 
CCC(=O)O [Propionic acid] |  |  | Conflicting info. | Non-agonist
CCCSSSCCC [Dipropyl trisulfide] | Non-agonist | Non-agonist |  | 
CCCC=O [Butanal] | Non-agonist | Non-agonist |  | 
CC(C)(O)CCCC1=CCC(C=O)CC1 (stereo not drawn) [Lyral] | Conflicting info. | Non-agonist |  | 
CCCCC/C=C\C=O [2-octenal, (2z)-] | Non-agonist | Non-agonist |  | 
CCCCCCC/C=C/C=O [2-decenal, (2e)-] | Non-agonist | Non-agonist |  | 
CC(=O)C1=NCCS1 [2-Acetyl-2-thiazoline] | Non-agonist | Non-agonist |  | 
CCCCCCC(=O)O [Heptanoic acid] | Non-agonist | Non-agonist |  | 
C=C(C)c1ccc(C)cc1 [P,α-Dimethylstyrene] | Non-agonist | Agonist |  | 
